In brackets after ≈: the same amount, converted by molar mass. Entries after “also recorded” stand apart in the source; their conditions may differ. Where two headings read alike, the source gives them in different places.
Tests used:
E. coli (ATCC 25922) = test: Minimum inhibitory concentration (MIC); assay type: cell-based, Escherichia coli
Protocol: (§1) The test strains were inoculated on the corresponding solid medium and incubated overnight at 37°C. A single colony was picked from the medium and inoculated into Luria Broth (LB), and then incubated overnight at 37°C with shaking at 220 rpm. The bacterial suspension was diluted to 0.5 McFarland turbidity with Mueller Hinton broth (MHB), and then dilute 100 times for later use. Halicin was added to the 96-well plate, and diluted it to concentrations of 128, 64, 32, 16, 8, 4, 2, 1, 0.5, 0.25, 0.125, and 0 μg/mL by gradient. The 96-well plate was incubated at 37°C for 16 h, followed by observing and recording the results. The MIC was determined as the concentration at which there was no visible colony growth was observed.

[1] = test system: clinical isolates of C. perfringens strains; assay type: cell-based, Clostridium perfringens
S. aureus (ATCC 29213) [2] = test: Minimum inhibitory concentration (MIC); assay type: cell-based, Staphylococcus aureus
Protocol: as §1

E. faecalis (ATCC 29212) = test: Minimum inhibitory concentration (MIC); assay type: cell-based, Enterococcus faecalis
Protocol: as §1

ICR mice = test: Acute oral toxicity test in ICR mice
S. aureus (ATCC 29213) [3] = test: Growth kinetics curve; assay type: cell-based, Staphylococcus aureus
[4] = test system: C. perfringens (ATCC 13124); assay type: cell-based, Clostridium perfringens
[5] = test system: Salmonella typhimurium strains TA97, TA98, TA100, and WP2uvrApKM101; test: Ames test, all strains as summarised in the text
TA97a = test: Ames test; assay type: cell-based, Salmonella typhimurium
Protocol: (§2) The experiments were performed in triplicate.

H. parasuis (ATCC 19417) = test: Minimum inhibitory concentration (MIC); assay type: cell-based
Protocol: as §1

S. flexneri (CMCC 51572) = test: Minimum inhibitory concentration (MIC); assay type: cell-based
Protocol: as §1

Proteus (CMCC (B) 49027) = test: Minimum inhibitory concentration (MIC); assay type: cell-based
Protocol: as §1

[6] = test system: Streptococcus suis (ATCC 43765); test: Minimum inhibitory concentration (MIC); assay type: cell-based
Protocol: as §1

WP2uvApKM101 = test: Ames test; assay type: cell-based, Escherichia coli
Protocol: as §2

mouse bone marrow cells = settings: for Chromosome aberration (%) / Number of cells with chromosome aberration: ICR mice, oral; for Number of cells with chromosome aberration: of 5 × 100 cells at metaphase
[7] = test system: Clostridium perfringens Type A; assay type: in vivo, BALB/c mice; settings: for survival of infected mice: 1 h after C. perfringens challenge
[8] = test system: bone marrow polychromatic erythrocytes; test: Micronucleus experiment of mammalian bone marrow cells
rats = test: 90-Day subchronic toxicity assay
[9] = test system: A. baumannii (ATCC 19606); test: Minimum inhibitory concentration (MIC); assay type: cell-based, Acinetobacter baumannii
Protocol: as §1

[10] = test system: other bacteria (except Bacillus subtilis and Pseudomonas aeruginosa); test: MIC, panel of Table 1 as summarised in the text; assay type: cell-based; settings: bacteria of Table 1 except Bacillus subtilis and Pseudomonas aeruginosa
S. aureus (ATCC 29213) [11] = test: Multipassage resistance study (continuous induction); settings: after 90 days of continuous exposure to 0.5 × MIC
[12] = test system: Klebsiella pneumoniae (ATCC 4352); test: Growth kinetics curve; assay type: cell-based; settings: 1/2 × to 4 × MIC
[13] = Female mice, High-does (1009.1) mg/kg
[14] = Female mice, Low-does (252.3) mg/kg
[15] = Female mice, Medium-does (504.6) mg/kg
[16] = Male mice, High-does (1009.1) mg/kg
[17] = Male mice, Low-does (252.3) mg/kg
[18] = Male mice, Medium-does (504.6) mg/kg

Nc1nnc(Sc2ncc([N+](=O)[O-])s2)s1 [halicin]
MIC (E. coli (ATCC 25922)): 8 µg/mL (≈ 30.6 µM)
MIC ([1]; clinical isolate S049, Clostridium perfringens Cp001): 4 µg/mL (≈ 15.3 µM)
MIC ([1]; clinical isolate S050, Clostridium perfringens Cp002): 4 µg/mL (≈ 15.3 µM)
MIC ([1]; clinical isolate S051, Clostridium perfringens Cp003): 4 µg/mL (≈ 15.3 µM)
MIC ([1]; clinical isolate S052, Clostridium perfringens Cp004): 8 µg/mL (≈ 30.6 µM)
MIC ([1]; clinical isolate S053, Clostridium perfringens Cp005): 8 µg/mL (≈ 30.6 µM)
MIC ([1]; clinical isolate S054, Clostridium perfringens Cp006): 8 µg/mL (≈ 30.6 µM)
MIC ([1]; clinical isolate S055, Clostridium perfringens Cp007): 16 µg/mL (≈ 61.2 µM)
MIC ([1]; clinical isolate S056, Clostridium perfringens Cp008): 0.25 µg/mL (≈ 0.957 µM)
MIC ([1]; clinical isolate S057, Clostridium perfringens Cp009): 0.25 µg/mL (≈ 0.957 µM)
MIC ([1]; clinical isolate S058, Clostridium perfringens Cp010): 0.25 µg/mL (≈ 0.957 µM)
MIC (S. aureus (ATCC 29213) [2]): 8 µg/mL (≈ 30.6 µM)
MIC (E. faecalis (ATCC 29212)): 4 µg/mL (≈ 15.3 µM)
mortality (ICR mice; 500 mg/kg oral): none died
survival rate at 7 days (ICR mice; 1,000 mg/kg oral): 80%
7-day survival rate (ICR mice; 4,000 mg/kg oral): 10%
LD50 (ICR mice; ICR mice, oral gavage, 7 days observation): 2018.3 mg/kg
acute toxicity classification (ICR mice; based on LD50): low-toxicity compound
growth in growth kinetics curve assay (S. aureus (ATCC 29213) [3]; 1 × MIC): started to grow rapidly after 16 h
growth in growth kinetics curve assay (S. aureus (ATCC 29213) [3]; 4 × MIC, after 20 h): still proliferated significantly
type of antibacterial action (S. aureus (ATCC 29213) [3]; against S. aureus): bacteriostatic rather than a bactericidal agent
MIC [4]: 8 µg/mL (≈ 30.6 µM)
bacterial counts of the four strains ([5]; 22.5 μg/plate, due to antibacterial effect): significantly decreased
mutagenicity in the Ames test ([5]; concentrations below 11.2 μg/plate, with or without S9): non-mutagenic
Ames test bacterial counts (TA97a; +S9, 5.6 μg/plate): 145 ± 5.7
Ames test bacterial counts (TA97a; +S9, 11.2 μg/plate): 151 ± 11.3
Ames test bacterial counts (TA97a; +S9, 22.5 μg/plate): 31 ± 8.5
Ames test bacterial counts (TA97a; +S9, 45 μg/plate): 0 ± 0
Ames test bacterial counts (TA97a; -S9, 5.6 μg/plate): 82 ± 14.1
Ames test bacterial counts (TA97a; -S9, 11.2 μg/plate): 115 ± 8.5
Ames test bacterial counts (TA97a; -S9, 22.5 μg/plate): 0 ± 0
Ames test bacterial counts (TA97a; -S9, 45 μg/plate): 0 ± 0
MIC (H. parasuis (ATCC 19417)): 8 µg/mL (≈ 30.6 µM)
MIC (S. flexneri (CMCC 51572)): 8 µg/mL (≈ 30.6 µM)
MIC (Proteus (CMCC (B) 49027)): 8 µg/mL (≈ 30.6 µM)
MIC [6]: 4 µg/mL (≈ 15.3 µM)
Ames test bacterial counts (WP2uvApKM101; WP2uvApKM101, +S9, 5.6 μg/plate): 183 ± 15.6
Ames test bacterial counts (WP2uvApKM101; WP2uvApKM101, +S9, 11.2 μg/plate): 168 ± 19.8
Ames test bacterial counts (WP2uvApKM101; WP2uvApKM101, +S9, 22.5 μg/plate): 12 ± 5.7
Ames test bacterial counts (WP2uvApKM101; WP2uvApKM101, +S9, 45 μg/plate): 0 ± 0
Ames test bacterial counts (WP2uvApKM101; WP2uvApKM101, -S9, 5.6 μg/plate): 169 ± 15.6
Ames test bacterial counts (WP2uvApKM101; WP2uvApKM101, -S9, 11.2 μg/plate): 135 ± 22.6
Ames test bacterial counts (WP2uvApKM101; WP2uvApKM101, -S9, 22.5 μg/plate): 75 ± 8.5
Ames test bacterial counts (WP2uvApKM101; WP2uvApKM101, -S9, 45 μg/plate): 0 ± 0
teratogenic effect on bone marrow cells (mouse bone marrow cells; 252.3 mg/kg to 1009.1 mg/kg, p > 0.05 vs negative control): no significant teratogenic effect
Chromosome aberration (%) (mouse bone marrow cells; High-does (1009.1) mg/kg): 1.4 ± 0.55%
Number of cells with chromosome aberration (mouse bone marrow cells; High-does (1009.1) mg/kg): 7
Chromosome aberration (%) (mouse bone marrow cells; Low-does (252.3) mg/kg): 1.4 ± 1.14%
Number of cells with chromosome aberration (mouse bone marrow cells; Low-does (252.3) mg/kg): 7
Chromosome aberration (%) (mouse bone marrow cells; Medium-does (504.6) mg/kg): 1.6 ± 0.89%
Number of cells with chromosome aberration (mouse bone marrow cells; Medium-does (504.6) mg/kg): 8
survival of infected mice ([7]; 5 mg/kg halicin): more than 80%
survival of infected mice ([7]; 10 mg/kg halicin): no deaths occurred; also recorded: All mice in the 10 mg/kg halicin group survived
therapeutic effect in infected mice ([7]; dose of 5 mg/kg): good therapeutic effects
efficacy compared with 10 mg/kg metronidazole ([7]; intestinal anaerobic bacteria infection in mice): much more effective
PCE micronucleus (‰) [8, 13]: 2.2 ± 0.8 ‰
PCE/RBC [8, 13]: 0.72 ± 0.08
PCE micronucleus (‰) [8, 14]: 1.2 ± 0.4 ‰
PCE/RBC [8, 14]: 1.09 ± 0.06
PCE micronucleus (‰) [8, 15]: 0.8 ± 0.4 ‰
PCE/RBC [8, 15]: 1.06 ± 0.07
PCE micronucleus (‰) [8, 16]: 0.8 ± 0.8 ‰
PCE/RBC [8, 16]: 0.76 ± 0.03
PCE micronucleus (‰) [8, 17]: 0.6 ± 0.5 ‰
PCE/RBC [8, 17]: 1.07 ± 0.09
PCE micronucleus (‰) [8, 18]: 1 ± 0.7 ‰
PCE/RBC [8, 18]: 1.08 ± 0.11
micronucleus ratio compared with the negative control group ([8]; high-dose (1009.1 mg/kg), p < 0.01): significant difference
micronucleus ratio compared with the negative control group ([8]; medium (504.6 mg/kg) and low-dose (252.3 mg/kg), p > 0.05): no significant difference
water consumption and mental states (rats; all dosage groups): no significant changes
body weight of female rats compared with the control group (rats; all halicin treatment groups, 90 days, p > 0.05): no significant difference
mortality (rats; any experimental group (50.5-201.8 mg/kg), 90 days): No mortality
weight of organs compared with the control group (rats; end of the experiment, all treatment groups, p > 0.05): no significant difference
maximum safe concentration (rats; from the safety assessment): 50.5 mg/kg
kidney findings (autopsy, HE sections) (rats; high dose 201.8 mg/kg, 201.8 mg/kg): slight renal inflammation; also recorded: kidney lesions
body weight of male rats compared with the control group (rats; high-dose group (201.8 mg/kg), oral, 90 days, p < 0.05): significantly lower
serum ALT and AST levels compared with the control group (rats; high-dose, p < 0.01): significantly reduced
diet compared with the control group (rats; low-dose group (50.5 mg/kg), p > 0.05): No significant differences
dosages with good safety and tolerability (rats; rats, oral, 90 days): below 50.5 mg/kg
MIC [9]: 8 µg/mL (≈ 30.6 µM)
MIC against other bacteria [10]: less than 8 μg/mL
MIC of SAR (S. aureus ATCC 29213 resistant strains) (S. aureus (ATCC 29213) [11]): 64 µg/mL
growth in growth kinetics curve assay [12]: completely inhibited
